Data published in patent EP0371366A1, “Antiviral agents” (priority 1988, dated 1990).
Where two headings read alike, the source gives them in different places. Marks after values point to notes of the source that are not given here.

Columns and labels:
HIV (LAV Strain) = test: Antiviral activity in HIV-infected A301 (Alex) cells, reverse transcriptase level readout; assay type: cell-based; details: Human immunodeficiency virus 1
Experimental: This procedure is a modification of a procedure initially described by Chen et al., Biochemical Pharmacology. 36 (24), 4361-4362 (1987).
(§1) A301 (Alex) cells are pre-infected with a constant amount of HIV (LAV Strain) for three hours at 37° C. Test compounds and AZT (control) are added to the infected cells in two, three or five-fold dilutions, out four places for screening and eight places for confirmation. Unless mentioned the highest concentration is […]. The test plates are incubated in C02 at 37` C for up to twelve days (incubation time depends on virus pool titer) with a partial medium/sample change midpoint through the incubation period. Uninfected A301 cells with sample dilutions, but without virus, are used to evaluate cytotoxicity.
Reverse transcriptase levels are assayed at the end of the incubation period as follows, to determine if antiviral activity is present.
[…] of medium from the HIV infected Alex cells is added to 10 mL of 3.2% Triton X-100. This solution is incubated for 30 minutes at 37° C, then 25 mL of 4X assay mix is added to it. The 4X assay mix contains [^3H]TTP, poly(A).oligo(dT), potassium chloride, magnesium chloride, dithiothreitol, and Tris-HCI buffer, pH8.0. […] The radioactivity remaining on the 3MM paper is quantitated by scintillation counter, and corresponds to reverse transcriptase level.

[1] = Cytotoxicity in uninfected A301 (Alex) cells; assay type: cell-based; details: human, read-out: Cell Toxicity Partial
Experimental: as §1

Uninfected A301 cells = test: Cytotoxicity in uninfected A301 (Alex) cells; assay type: cell-based
Experimental: as §1

HIV = details: background statement on prior art; cited from earlier work
[2] = background statement on prior art; cited from earlier work
[3] = system: Granulocyte-Macrophage Colonies (CFU-GM); test: CFU-GM assay (myeloid precursors), human hematopoietic cell toxicity; assay type: cell-based
Description: (§2) This procedure is a modification of procedures initially described by Diainiak, et al., British Journal of Haematology, 69, 229-304 (1988), or as described by Sommadossi, et al., Agents and Chemotherapy, 31-(3), 452-454 (1987).
(§3) The effect of 4 -azidothymidine and AZT on the formation of erythroid and GM colonies from precursors in human peripheral blood and bone marrow were compared; from which the inhibition of 4 -azidothymidine and AZT against human hematopoietic cells were compared.
In each experiment peripheral blood or bone marrow from a single donor was used. Human peripheral blood mononuclear cells (PBL) were separated from heparinized blood of drug-free donors by density-gradient centrifugation in Ficoll (Pharmacia). Whole blood diluted 1:1 with Hanks' balanced salt solution (HBSS, Gibco) was layered on the top of Ficoll and centrifuged at 400 x g for 30 min. Cells were collected from the interphase and after washing, the concentration was adjusted to 2x10^6 cells/mL in RPMI-1640 medium with 25 mM Hepes buffer (Gibco). Monocytes were removed by adherence to plastic in large Petri dishes (150x15mm), adding 20 ml of the cell suspension/dish, and incubating for 1 hour at 37° C. Nonadherent mononuclear cells (MN) were removed by vigorous washing of the Petri dish with warm (37°C) HBSS.
Bone marrow aspirates from healthy donors were collected in heparizined syringes. The whole mononuclear cell fraction was separated by Ficoll-Paque density-gradient centrifugation (400 x g for 30 min). Cells collected from the interphase were washed 3 times in HBSS and resuspended in culture medium as described below for CFU-GM assay.
MN (1.5x10^6 cells/ml) and BM (1.x10^5 cells/ml) were cultured in complete medium as follows: Dulbecco's Modified Eagle Medium (DMEM, Gibco) supplemented with 20% heat-inactivated fetal calf serum (FCS, Hyclone), 2 mM L-glutamine, 5 x 10-^5 M 2-mercaptoethanol, penicillin (100 U/ml), streptomycin ([…]), and 0.3% bacto-agar (Difco). All supplements were from Gibco, unless otherwise specified. Cells were plated in 35x100 mm Lux Petri dishes (suspension dishes) in triplicate, and incubated at 37°C with 5% CO2 in air at 100% humidity. A supernatant from a T-cell line (GCT, Gibco), containing GM-Colony Stimlating Factor (GM-CSF), was used at a final concentration of 10% in complete medium. Tested compounds were added to the test dishes at concentrations of 10-^9 to 10-^4 M. Cells were incubated in air containing 5% CO2 (100% humidity) at 37°C for 14 days. Colonies were counted under a dissecting microscope. A CFU-GM colony was defined as a cluster of 50 or more cells consisting of granulocytes, monocyte-macrophages, or both.
All tests were performed in triplicate. The 50% inhibitory concentrations (ICso) for all types of colonies were determined using an RS 1 program on an IBM-PC.

[4] = system: Erythroid Colonies, CFU-E; test: CFU-E assay (late erythroid precursors), human hematopoietic cell toxicity; assay type: cell-based
Description: as §2, §3
In each experiment peripheral blood or bone marrow from a single donor was used. […]
MN were cultured at a concentration of 3 x 10^5 cells/ml. The culture medium consisted of Iscove's Modified Eagle Medium (Gibco) supplemented with 30% heat-inactiviated FCS (Hyclone), penicillin ([…]), streptomycin ([…]), 2-mercaptoethanol (1 x 10^-4, 1% deionized bovine serum albumin (BSA, Sigma), DEAE-Dextran 40 mg/ml (Pharmacia), 0.8% methylcellulose (4000 Centipose, Fisher), and erythropoietin 2 U/ml (Connaught Laboratories). Cells were plated in 96-well plates ([…]) and incubated at 37^*C with 5% C02 in air (100% humidity) for 7-14 days. CFU-E colonies were counted on Days 7-8. Clusters of 8 or more hemoglobinized cells were considered as a colony. BFU-E colonies were counted on Day 14. Aggregates of 50 or more cells were counted as a colony. […]

[5] = system: Friend leukemia virus complex (FLVC); assay type: in vivo, Balb/c mice; details: daily dose 120 mg/kg i.p. for 9 days
Experimental: This procedure is a modification of a procedure initially described by Jones et al., Journal of Virology, 62 (2), 511-51,8 (1988), or by modifications thereof.
Friend leukemia virus complex (FLVC) was used. This retrovirus complex consists of both helper and defective virus particles.
Six week old female Balb/c mice from Bantin and Kingman, each weighing on the average of 18 gm, received 0.2ml of a solution (comprised of virus diluted in PBS containing 0.002 M EDTA) administered at 20 FFU/mouse, intravenously. Treatments began 4 hours after infection and continued for 9 days. AZT and 4'-azidothymidine were administered at 60 mg/kg/dose twice daily on Days 0, 4, and 5; and on Days 1-3 and 6-8 were administered 3 times daily at 40 mg/kg/dose. 2 3 -Dideoxycytidine was administered at 120 mg/kg/dose twice daily on days 0, 4, and 5; and on days 1-3 and 6-8 was administered 3 times daily at 80 mg/kg/dose. All treatments were given intraperitoneally, 0.5mi/dose. On day 9 after infection the spleens were removed, stained and fixed in Bouin's solution for 2 hours and then weighed. Foci were counted on spleens. A standard t-test was run to compare difference in spleen weights and difference in number of foci-forming units (FFU's) per spleen between groups.

Question: Which results are given for `Cc1cn([C@H]2C[C@H](N=[N+]=[N-])[C@@H](CO)O2)c(=O)[nH]c1=O` [3'-azidothymidine, reference compound]?
Answer: EC50 (HIV (LAV Strain)): 0.01 µM; MCC [1]: 825 µM; Cell Toxicity Complete (Uninfected A301 cells): 3300 µM

Question: Which anti-HIV activity (HIV) does the source give for `[N-]=[N+]=N[C@]1(CO)O[C@@H](n2ccc(N)nc2=O)[C@H](O)[C@@H]1O` [4 -azidocytidine] here?
Answer: devoid of anti-HIV activity

Question: And the cytotoxicity [2]?
Answer: cytotoxic

Question: For `Cc1cn([C@H]2C[C@H](O)[C@](CO)(N=[N+]=[N-])O2)c(=O)[nH]c1=O` [4'-azidothymidine], which EC50 (HIV (LAV Strain); A301 (Alex) cells pre-infected with HIV (LAV Strain), reverse transcriptase levels at end of incubation, read-out: EC50) is on record?
Answer: 0.01 µM

Question: And the MCC [1]?
Answer: 8 µM

Question: What about the “Cell Toxicity Complete” value (Uninfected A301 cells) of the same molecule?
Answer: 200 µM

Question: And the IC50 ([3]; bone marrow, experiment 1, listed as 2, read-out: IC50 BM 1)?
Answer: 2.01 µM

Question: What about the IC50 ([3]; bone marrow, experiment 2, listed as 2, read-out: IC50 BM 2) of the same molecule?
Answer: 0.9 µM

Question: And the IC50 ([3]; peripheral blood mononuclear cells, five separate experiments, listed as 2, read-out: IC50 PBM Mean ±SE)?
Answer: 4.83 ± 1.42 µM

Question: What about the IC50 ([4]; BM (1 experiment)) of the same molecule?
Answer: 27 µM

Question: What about the “Inhibition of Splenomegaly” value [5] of the same molecule?
Answer: 75%

Question: What about the FFU/Spleen ([5]; Day 9) of the same molecule?
Answer: ≥26 FFU/Spleen

Question: What about the “Spleen Weight” value ([5]; weighed on Day 9 after infection) of the same molecule?
Answer: 0.190^d gm

Question: With `Cc1cn([C@H]2C[C@H](O)[C@](CO)(N=[N+]=[N-])O2)c(=O)[nH]c1=O` [Compound 1] as the molecule, how does the IC50 ([3]; bone marrow, experiment 1, read-out: IC50 BM 1) read?
Answer: 21.1 µM

Question: And the IC50 ([3]; bone marrow, experiment 2, read-out: IC50 BM 2)?
Answer: 13.6 µM

Question: What about the IC50 ([3]; peripheral blood mononuclear cells, five separate experiments, read-out: IC50 PBM Mean ±SE) of the same molecule?
Answer: 20.7 ± 1.73 µM

Question: And the IC50 ([4]; PBM (3 experiments))?
Answer: > 100 µM
